Legend:
wild-type BSEP [1] = biological target: T1, wild-type BSEP (Homo sapiens, UniProt O95342, L339V); assay: Cell surface biotinylation method, expression on the surface of MDCKII cells; assay type: cell-based; details: 1 mM, 24 hours, FIG. 9 cell surface fraction
T1 construct: expressed in transfected cells; host or cells: MDCKII cells infected with recombinant adenovirus
Experimental: MDCKII cells were dispersed on a 6-well plate, resulting in a density of 2.5×10^5 cells/well. After completion of the culture for 24 hours, the confluent cells were infected with recombinant adenoviruses having the cDNAs of wild-type, E297G and D482G BSEPs, and GFP, at 200 MOI. After completion of the infection, the cells were cultured for 24 hours. […] After completion of the treatment for 24 hours, the cells were biotinylated (see Hayashi et al., Hepatology, 41: 916-924, 2005).

wild-type BSEP [2] = biological target: T1, wild-type BSEP; assay: Transcellular transport assay of [^3H] TC across MDCKII monolayer; assay type: cell-based; details: other carboxylic acids, 1 mM, 24 hours; FIG. 10
Experimental: MDCKII cells were dispersed on a Transwell membrane insert (pore size: […]; Falcon) of a 24-well plate, resulting in a density of 1.5×10^5 cells/insert. Two days after the culture, the confluent cells were infected with recombinant adenoviruses having the cDNAs of wild-type, E297G and D482G BSEPs, and GFP, at 50 MOI. […] After completion of the treatment for 24 hours, a transcellular transport assay was carried out (see Mita et al., Am J Physiol Gastrointest Liver Physiol 290: G550-G556, 2006).
The apparent efflux clearance across the apical membrane (PSapical) was calculated by dividing a steady rate of the transcellular transport of [^3H] TC for 2 hours by the intracellular concentration of the [^3H] TC at the termination of the experiment (2 hours later).

T1 sequence (O95342 whole entry L339V): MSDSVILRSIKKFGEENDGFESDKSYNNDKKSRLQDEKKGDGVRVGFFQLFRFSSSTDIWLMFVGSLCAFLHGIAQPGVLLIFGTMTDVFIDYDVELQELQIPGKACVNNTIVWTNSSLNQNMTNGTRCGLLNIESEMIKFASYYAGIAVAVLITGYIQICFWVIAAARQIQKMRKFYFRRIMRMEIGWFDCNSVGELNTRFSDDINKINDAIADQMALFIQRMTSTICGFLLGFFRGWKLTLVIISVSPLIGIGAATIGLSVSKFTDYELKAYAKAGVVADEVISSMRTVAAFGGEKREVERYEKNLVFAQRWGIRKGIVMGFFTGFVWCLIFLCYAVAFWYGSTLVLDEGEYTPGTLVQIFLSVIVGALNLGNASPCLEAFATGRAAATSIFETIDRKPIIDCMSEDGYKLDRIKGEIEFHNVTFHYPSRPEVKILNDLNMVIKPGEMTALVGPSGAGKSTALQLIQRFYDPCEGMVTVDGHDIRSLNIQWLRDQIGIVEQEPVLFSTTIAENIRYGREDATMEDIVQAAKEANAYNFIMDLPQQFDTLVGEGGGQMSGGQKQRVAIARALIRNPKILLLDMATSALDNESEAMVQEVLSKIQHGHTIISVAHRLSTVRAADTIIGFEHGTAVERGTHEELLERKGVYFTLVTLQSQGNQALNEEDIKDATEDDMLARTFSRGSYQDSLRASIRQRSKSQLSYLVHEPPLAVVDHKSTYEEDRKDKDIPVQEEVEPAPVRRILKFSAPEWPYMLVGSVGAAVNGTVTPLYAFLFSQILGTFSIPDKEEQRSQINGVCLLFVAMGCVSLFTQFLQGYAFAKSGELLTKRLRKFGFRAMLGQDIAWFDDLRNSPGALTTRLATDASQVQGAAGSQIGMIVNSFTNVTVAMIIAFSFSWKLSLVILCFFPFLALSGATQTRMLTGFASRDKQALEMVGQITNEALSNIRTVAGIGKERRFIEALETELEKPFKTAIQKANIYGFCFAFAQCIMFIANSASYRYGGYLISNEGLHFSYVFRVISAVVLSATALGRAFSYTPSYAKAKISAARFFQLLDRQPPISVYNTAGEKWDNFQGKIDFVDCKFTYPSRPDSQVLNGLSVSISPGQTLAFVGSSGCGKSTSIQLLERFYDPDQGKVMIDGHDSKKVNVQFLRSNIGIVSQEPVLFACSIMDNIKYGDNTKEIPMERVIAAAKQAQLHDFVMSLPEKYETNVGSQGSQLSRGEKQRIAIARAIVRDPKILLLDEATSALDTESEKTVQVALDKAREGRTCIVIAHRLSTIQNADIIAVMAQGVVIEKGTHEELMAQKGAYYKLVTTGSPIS

| SMILES | expression level of wild-type BSEP (wild-type BSEP [1]) | efflux of [^3H] TC from the base side to the apical side (in words) (wild-type BSEP [2]) |
| --- | --- | --- |
| CCCCCCCC(=O)O [octanoic acid] | an increase in the expression level was observed |  |
| CCCCCCCCCC(=O)O [decanoic acid] |  | increased |
| CCCC(=O)O [butanoic acid] |  | increased |
| CCC(=O)O [propionic acid] |  | increased |

Reference: US20130197085A1, “AGENT AND METHOD FOR STABILIZING MEMBRANE PROTEIN” (priority 2007, published 2013)
